Earlier results as cited in patent US20140186456A1, “Tripartite Bioactive Composition Providing Anti-Oxidant and Anti-Inflammatory Effects with Immune System and Stem Cell Production Enhancement” (priority 2011, published 2014).

Tested on: organisms and animal species

## Oc1ccc(/C=C/c2cc(O)cc(O)c2)cc1 [resveratrol, 3,5,4′-trihydroxy-trans-stilbene]
  increase of lifespan: 20-40%
